This note sets out measurements from patent US20240279202A1 (NURIX THERAPEUTICS, INC., priority 2021, published 2024).

The nature of data set [1]: Mouse PK analysis (blood/plasma concentration after oral administration). The conditions noted are these: mouse; mice, oral, plasma. Format: in vivo. Here is the method:
Compounds 1, 3, 7, and 42 were formulated and administered at 90 mg/kg to mice by oral gavage (PO). Blood was collected at defined time points (after 1, 2, and 6 hours) after compounds administration to determine PK parameters. Concentration increased through 6 hours. Six hours later mice were sacrificed and splenocytes were isolated and used to prepare protein lysates. Total protein levels were determined in the lysates using the BCA assay according to standard methods. Equal amounts of protein were then analyzed by Western blot to determine the level of ITK expression in each sample. ITK band intensities were measured using Alpha View software and the percent of ITK remaining in each test animal was determined relative to the mean of ITK levels in vehicle control samples.
Compounds 16, 17, and 18 were administered to mice orally. After 6 hours or 24 hours, splenocytes cells were harvested. ITK was evaluated by Western blotting. Plasma concentrations were determined by LC/MS/MS. Plasma samples were protein precipitated by addition of 100 μl of acetonitrile containing 50 ng/ml of internal standard. The resulting mixture was vortexed and centrifuged at 4000 RPM for 5 minutes. An aliquot of the resultant supernatant (75 μl) was added to 75 μl of 0.1% formic acid in water to constitute the final sample for injection. Samples were injected on a Shimadzu Exion LC Binary Gradient AD Pump HLPC system connected to a Sciex QTRAP 6500+mass spectrometer. Five μl of sample was injected onto a Waters Acquity UPLC BEH C18 column 130A (2.1×30 mm, […]) at 40° C. utilizing a flow rate of 700 μl/minute. Mobile Phase A was 0.1% formic acid in water and mobile phase B was 0.1% formic acid in acetonitrile. A linear gradient of 15-95% B over 1.0 minute was used. The mass spectrometer was operated in positive ion electrospray mode with multiple reaction monitoring for maximum sensitivity. Sciex Analyst software (version 1.6.3) was used for LC/MS/MS instrument control and acquisition. Compound concentration was determined against a standard curve of internal standard versus compound peak area ratio. Noncompartmental PK parameters were determined using […] software (version 8.2.0.4383) from Certara. Plasma concentrations from the LC/MS/MS analyses, dose, route of administration, and desired units were utilized for PK parameter calculations. […] FIG. 4C provides the concentration over time of compound 17 following in vivo oral administration in the 6 hour and 24 hour assays.
Cmax, Tmax and AUClast were all calculated using a WinNonLin Phoenix 64 v 8.2.0.4383. Using non-compartmental analysis, Tmax, Cmax and AUClast were determined as follows: • Tmax—Time of maximum observed concentration. • Cmax—Maximum observed concentration, occurring at time Tmax, as defined above. • AUClast—Area under the curve from the time of dosing to the time of the last measurable (positive) concentration (Tlast).

The target in data set [2] is T1, ITK (Homo sapiens, UniProt Q08881).
T1 sequence (Q08881 1-620): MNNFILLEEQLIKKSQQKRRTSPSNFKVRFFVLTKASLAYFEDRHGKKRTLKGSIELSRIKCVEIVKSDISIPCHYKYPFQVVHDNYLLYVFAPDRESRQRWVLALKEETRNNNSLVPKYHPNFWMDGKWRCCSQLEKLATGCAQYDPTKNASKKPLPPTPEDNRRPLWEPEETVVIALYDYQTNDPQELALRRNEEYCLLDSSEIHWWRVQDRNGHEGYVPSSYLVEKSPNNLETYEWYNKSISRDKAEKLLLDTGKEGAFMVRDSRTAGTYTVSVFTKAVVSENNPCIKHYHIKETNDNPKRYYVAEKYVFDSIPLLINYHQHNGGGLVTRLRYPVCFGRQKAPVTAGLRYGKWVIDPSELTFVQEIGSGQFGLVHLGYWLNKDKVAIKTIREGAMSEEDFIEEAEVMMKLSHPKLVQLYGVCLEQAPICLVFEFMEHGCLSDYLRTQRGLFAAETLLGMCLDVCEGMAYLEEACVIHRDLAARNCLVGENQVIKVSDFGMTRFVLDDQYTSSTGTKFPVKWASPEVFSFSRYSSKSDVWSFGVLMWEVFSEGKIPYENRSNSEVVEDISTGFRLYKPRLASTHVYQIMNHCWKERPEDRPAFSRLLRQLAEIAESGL
The data set is described as follows: ITK degradation HiBiT assay. Format: cell-based. Details: expressed in transfected cells; host or cells: Molt4 (ATCC CRL-1552), monoclonal clone 1C10, engineered to carry the HiBiT tag. The conditions noted are these: 4 hrs; for DC50: C-terminal HiBiT-tagged Molt4 cells; for Dmax: MOLT-4, C-terminal HiBiT-tagged Molt4 cells. An outline of the steps: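 C-terminal HiBiT-tagged Molt4 cells (clone 1C10) treated 4 h at 32° C with an 11-point, 5-fold compound dilution series (0.5% DMSO). HiBiT lytic detection with LgBiT then luminescence read; % ITK remaining versus concentration fit by four-parameter variable-slope model to give DC50 and Dmax.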
For orientation: With HiBiT, luminescence reflects the tagged protein that the partner subunit can reach.

The structures appear in SMILES notation.

As to `C[C@@]12Cc3[nH]nc(C(=O)Nc4cnn([C@H](c5ccccc5)C5CN(C(=O)C6CN(c7ccc(C8CCC(=O)NC8=O)cn7)C6)C5)c4)c3C[C@@H]1C2(F)F` (stereo partly drawn) [Compound 51, (4aS,5aR)-N-(1-((1S)-(1-(1-(5-(2,6-dioxopiperidin-3-yl)pyridin-2-yl)azetidine-3-carbonyl)azetidin-3-yl)(phenyl)methyl)-1H-pyrazol-4-yl)-5,5-difluoro-5a-methyl-1,4,4a,5,5a,6-hexahydrocyclopropa[f]indazole-3-carboxamide], in data set [1], the AUC(0-t) (in general, exposure summed from dosing to a finite time, without extrapolation to infinity) was found to be 2.34 µM·h; the peak level (Cmax) was 720 nM; the Tmax (in general, the time at which the peak concentration occurs) came to 6 h.
In the case of `CC1(C)CCc2c(-c3cc4ccc(C(=O)N5CCC(C6CCN(c7ccc(C8CCC(=O)NC8=O)cn7)CC6)CC5)cc4[nH]3)n[nH]c2C1` (stereo not drawn) [Compound 58, 3-(6-(1′-(2-(6,6-dimethyl-4,5,6,7-tetrahydro-1H-indazol-3-yl)-1H-indole-6-carbonyl)-[4,4′-bipiperidin]-1-yl)pyridin-3-yl)piperidine-2,6-dione], in data set [1], the area under the curve AUC(0-t) turned out to be 0.18 µM·h; the highest concentration (Cmax) (as a rule, the highest concentration seen after dosing) was 61 nM; the time to peak (Tmax) turned out to be 1.5 h. In addition, in data set [2], it took 13.4 nM to reach half-maximal degradation (DC50) and the Dmax – broadly, the greatest extent of degradation seen – was 69%.
Take `CC1(C)CCc2c(-c3cc4ccc(C(=O)N5CCC(CN6CCC7(C6)CN(c6ccc(C8CCC(=O)NC8=O)cn6)C7)CC5)cc4[nH]3)n[nH]c2C1` (stereo not drawn) [Compound 61, 3-(6-(6-((1-(2-(6,6-dimethyl-4,5,6,7-tetrahydro-1H-indazol-3-yl)-1H-indole-6-carbonyl)piperidin-4-yl)methyl)-2,6-diazaspiro[3.4]octan-2-yl)pyridin-3-yl)piperidine-2,6-dione]: in data set [1], the AUC(0-t) amounted to 0.08 µM·h, the Cmax was 23 nM and the Tmax was found to be 1.5 h. In data set [2], the Dmax stood at 83%.
Turning to `CC1(C)CCc2c(-c3cc4cc(F)c(C(=O)N5CCN(CC6CCN(c7ccc(C8CCC(=O)NC8=O)nc7)CC6)CC5)cc4[nH]3)n[nH]c2C1` (stereo not drawn) [Compound 216, 3-{5-[4-({4-[2-(6,6-dimethyl-1,4,5,7-tetrahydroindazol-3-yl)-5-fluoro-1H-indole-6-carbonyl]piperazin-1-yl}methyl)piperidin-1-yl]pyridin-2-yl}piperidine-2,6-dione], in data set [2], the half-maximal degradation concentration (DC50) – broadly, the midpoint of the concentration-degradation curve – was determined as 0.06 nM and the maximal degradation (Dmax) was 87%.
Taken in the same sequence, the figures for `CC1(C)CCc2c(-c3cc4ccc(C(=O)N5CCN(CC6CCN(c7ccc(C8CCC(=O)NC8=O)c(F)c7)CC6)CC5)cc4[nH]3)n[nH]c2C1` (stereo not drawn) [Compound 221, 3-(4-(4-((4-(2-(6,6-dimethyl-4,5,6,7-tetrahydro-1H-indazol-3-yl)-1H-indole-6-carbonyl)piperazin-1-yl)methyl)piperidin-1-yl)-2-fluorophenyl)piperidine-2,6-dione] were 3.57 nM and 84%.
In data set [2], `CC1(C)CCc2c(-c3cc4ccc(C(=O)N5CCN(CC6CCN(c7ccc(C8CCC(=O)NC8=O)cc7F)CC6)CC5)cc4[nH]3)n[nH]c2C1` (stereo not drawn) [Compound 222, 3-{4-[4-({4-[2-(6,6-dimethyl-1,4,5,7-tetrahydroindazol-3-yl)-1H-indole-6-carbonyl]piperazin-1-yl}methyl)piperidin-1-yl]-3-fluorophenyl}piperidine-2,6-dione] returned a DC50 of 1.42 nM and a Dmax of 75%.
